Results published in patent US9487502B2, “Chemical compounds” (Syngenta Limited, priority 2013, dated 2016).

Key:
Format in all cases: in vivo
Setaria faberi [1] = test: Post-emergence herbicidal activity, SETFA; set-up: key: 5=total damage to plant; 0=no damage to plant; conditions: 1000 g/Ha, sprayed post-emergence (8 days cultivation), evaluated after 13 days, scale 0-5
Method: (§1) Seeds of a variety of test species were sown in standard soil in pots. After 8 days cultivation (post-emergence) under controlled conditions in a glasshouse (at 24/16° C., day/night; 14 hours light; 65% humidity), the plants were sprayed with an aqueous spray solution derived from the formulation of the technical active ingredient in acetone/water (50:50) solution containing 0.5% Tween 20 (polyoxyethelyene sorbitan monolaurate, CAS RN 9005-64-5). The test plants were then grown in a glasshouse under controlled conditions (at 24/16° C., day/night; 14 hours light; 65% humidity) and watered twice daily. After 13 days, the test was evaluated (5=total damage to plant; 0=no damage to plant).

Alopecurus myosuroides [2] = test: Pre-emergence herbicidal activity, ALOMY; conditions: 1000 g/Ha, sprayed pre-emergence, evaluated after 13 days, scale 0-5
Method: as §1, with “After” for “After 8 days”, “for one day (pre-emergence)” for “(post-emergence)”

Zea mays [3] = test: Post-emergence herbicidal activity, ZEAMX; set-up: key: 5=total damage to plant; 0=no damage to plant; conditions: 1000 g/Ha, sprayed post-emergence (8 days cultivation), evaluated after 13 days, scale 0-5
Method: as §1

Echinochloa crus-galli [4] = test: Pre-emergence herbicidal activity, ECHCG; set-up: key: 5=total damage to plant; 0=no damage to plant; conditions: 1000 g/Ha, sprayed pre-emergence, evaluated after 13 days, scale 0-5
Method: as §1, with “After” for “After 8 days”, “for one day (pre-emergence)” for “(post-emergence)”

Alopecurus myosuroides [5] = test: Post-emergence herbicidal activity, ALOMY; set-up: key: 5=total damage to plant; 0=no damage to plant; conditions: 1000 g/Ha, sprayed post-emergence (8 days cultivation), evaluated after 13 days, scale 0-5
Method: as §1

Abutilon theophrasti [6] = test: Post-emergence herbicidal activity, ABUTH; set-up: key: 5=total damage to plant; 0=no damage to plant; conditions: 1000 g/Ha, sprayed post-emergence (8 days cultivation), evaluated after 13 days, scale 0-5
Method: as §1

Amaranthus retroflexus [7] = test: Pre-emergence herbicidal activity, AMARE; set-up: key: 5=total damage to plant; 0=no damage to plant; conditions: 1000 g/Ha, sprayed pre-emergence, evaluated after 13 days, scale 0-5
Method: as §1, with “After” for “After 8 days”, “for one day (pre-emergence)” for “(post-emergence)”

Zea mays [8] = test: Pre-emergence herbicidal activity, ZEAMX; conditions: 1000 g/Ha, sprayed pre-emergence, evaluated after 13 days, scale 0-5
Method: as §1, with “After” for “After 8 days”, “for one day (pre-emergence)” for “(post-emergence)”

Amaranthus retroflexus [9] = test: Post-emergence herbicidal activity, AMARE; set-up: key: 5=total damage to plant; 0=no damage to plant; conditions: 1000 g/Ha, sprayed post-emergence (8 days cultivation), evaluated after 13 days, scale 0-5
Method: as §1

Abutilon theophrasti [10] = test: Pre-emergence herbicidal activity, ABUTH; set-up: key: 5=total damage to plant; 0=no damage to plant; conditions: 1000 g/Ha, sprayed pre-emergence, evaluated after 13 days, scale 0-5
Method: as §1, with “After” for “After 8 days”, “for one day (pre-emergence)” for “(post-emergence)”

Setaria faberi [11] = test: Pre-emergence herbicidal activity, SETFA; set-up: key: 5=total damage to plant; 0=no damage to plant; conditions: 1000 g/Ha, sprayed pre-emergence, evaluated after 13 days, scale 0-5
Method: as §1, with “After” for “After 8 days”, “for one day (pre-emergence)” for “(post-emergence)”

Echinochloa crus-galli [12] = test: Post-emergence herbicidal activity, ECHCG; set-up: key: 5=total damage to plant; 0=no damage to plant; conditions: 1000 g/Ha, sprayed post-emergence (8 days cultivation), evaluated after 13 days, scale 0-5
Method: as §1

Row | SMILES | SETFA damage score, application post-emergence (Setaria faberi [1]) | ALOMY damage score, application pre-emergence (Alopecurus myosuroides [2]) | ZEAMX damage score, application post-emergence (Zea mays [3]) | ECHCG damage score, application pre-emergence (Echinochloa crus-galli [4]) | ALOMY damage score, application post-emergence (Alopecurus myosuroides [5]) | ABUTH damage score, application post-emergence (Abutilon theophrasti [6]) | AMARE damage score, application pre-emergence (Amaranthus retroflexus [7]) | ZEAMX damage score, application pre-emergence (Zea mays [8]) | AMARE damage score, application post-emergence (Amaranthus retroflexus [9]) | ABUTH damage score, application pre-emergence (Abutilon theophrasti [10]) | SETFA damage score, application pre-emergence (Setaria faberi [11]) | ECHCG damage score, application post-emergence (Echinochloa crus-galli [12])
1 | CON1C(=O)N(c2cc(C(C)(C)C)ncn2)C(O)C1O (stereo not drawn) [Example A9] | 4 | 3 | 1 | 2 | 4 | 5 | 5 | 1 | 5 | 0 | 1 | 4
2 | CCCOC1C(O)N(c2cc(C(C)(C)C)ncn2)C(=O)N1C (stereo not drawn) [Example A10] | 4 | 4 | 2 | 2 | 4 | 5 | 5 | 2 | 5 | 4 | 4 | 4
3 | COC1C(O)N(c2cc(C(C)(C)C)ncn2)C(=O)N1C (stereo not drawn) [Example A11] | 5 | 3 | 1 | 3 | 4 | 5 | 5 | 1 | 5 | 4 | 4 | 4
4 | CCC1C(O)N(c2cc(C(C)(C)C)ncn2)C(=O)N1C (stereo not drawn) [Example A16] | 5 | 2 | 4 | 4 | 3 | 5 | 5 | 2 | 5 | 5 | 5 | 5
5 | CCCC1C(O)N(c2cc(C(C)(C)C)ncn2)C(=O)N1C (stereo not drawn) [Example A17] | 5 | 4 | 4 | 5 | 3 | 5 | 5 | 3 | 5 | 4 | 5 | 5
6 | CCOC1C(O)N(c2cc(C(C)(C)C#N)ncn2)C(=O)N1C (stereo not drawn) [Example A18] | 5 | 1 | 5 | 3 | 4 | 5 | 5 | 2 | 5 | 5 | 4 | 5
7 | CCC1C(O)N(c2cc(C(C)(C)C)ncn2)C(=O)N1OC (stereo not drawn) [Example A19] | 2 | 4 | 5 | 5 | 3 | 5 | 5 | 3 | 5 | 3 | 5 | 3
8 | CC1C(O)N(c2cc(C(C)(C)F)ncn2)C(=O)N1C (stereo not drawn) [Example A20] | 5 | 3 | 4 | 4 | 4 | 5 | 5 | 4 | 5 | 5 | 5 | 5
9 | CON1C(=O)N(c2cc(C(C)(C)F)ncn2)C(O)C1C (stereo not drawn) [Example A21] | 5 | 3 | 4 | 4 | 5 | 5 | 5 | 3 | 5 | 5 | 5 | 5
10 | CN1CC(O)N(c2cc(C(C)(C)F)ncn2)C1=O (stereo not drawn) [Example A22] | 5 | 4 | 5 | 5 | 5 | 5 | 5 | 4 | 5 | 5 | 5 | 5
11 | CON1CC(O)N(c2cc(C(C)(C)C)ncn2)C1=O (stereo not drawn) [Example A23] | 5 | 1 | 4 | 4 | 1 | 5 | 5 | 1 | 4 | 5 | 2 | 4
12 | CC1C(O)N(c2cc(C(C)(C)C#N)ncn2)C(=O)N1C (stereo not drawn) [Example A24] | 5 | 4 | 5 | 5 | 4 | 5 | 5 | 2 | 5 | 5 | 5 | 5
13 | CON1C(=O)N(c2cc(C(C)(C)C#N)ncn2)C(O)C1C (stereo not drawn) [Example A25] | 5 | 4 | 5 | 5 | 5 | 5 | 5 | 4 | 5 | 5 | 5 | 5
